Assay results: patent US4476125A, “Benzobisoxazinetetrones and anti-allergic use thereof” (USV Pharmaceutical Corporation, priority 1983, dated 1984)

Experiments:
[1] = tested on: rat mast cells; assay: Rat Mast Cell (RMC) histamine release from passively sensitized rat mast cells; format: cell-based; details: passively sensitized in vitro with anti-ovalbumin serum, antigen-induced histamine release, 0.1% DMSO, read-out: RMC I50
Text: The compounds of the present invention are useful as intermediates for making benzo-bis-oxazoles. Further, the compounds of the present invention are useful as antiallergic agents as evidenced by their activity as blockers of histamine release from passively sensitized rat mast cells (RMC) and in the rat passive cutaneous test (PCA). A brief description of the test methods follow.
Rat Mast Cell (RMC) Studies--(Based on E. Kusner, B. Dabnick, D. F. Herzig, J. Pharm. Exp., Ther., 1973, 184, 41.) Rat mast cells were passively sensitized in vitro with anti-ovalbumin serum. Following a 15 minute incubation, the spontaneous histamine release (SR) in the absence of antigent and AIR (in the presence of antigen) were measured fluorometrically with a Technicon Auto Analyzer®.

[2] = tested on: rat passive cutaneous anaphylaxis (blued wheal area); assay: Passive cutaneous anaphylaxis in the rat (PCA); format: in vivo, rat (male, Sprague Dawley); details: 125 mg/kg p.o.; antigen challenge ten minutes after oral administration
Text: Passive Cutaneous Anaphalixis in the Rat (Based on I. Mota, Life Science, 1963, F 465; and Z. Ovary and O. G. Bier, Proc. Soc. Exp. Biol. and Med., 1952, 81, 584)--Male, Sprague Dawley rats were sensitized at dorsal sites by intradermal injection of syngeneic serum containing IgE anti-ovalbumin.Forty-eight hours later, groups of four rats were given either vehicle (1% methylcellulose) or graded does of compound. Either ten minutes after oral drug administration or five minutes after i.p. drug dosing, rats were challenged intravenously with antigen (ovalbumin) in 1% Evans blue dye. Thirty minutes after antigen challenge, the rats were sacrificed by cervical dislocations, the dorsal skins were reflected and blued wheal areas measured. Mean values±S.D. for wheal areas in control and drug-treated groups were detemined and compared statistically using Student's t-test.

For `O=c1[nH]c2cc3[nH]c(=O)c(=O)oc3cc2oc1=O` [Example 1F, Benzo[1,2-b;5,4-b]-bis-[1,4]oxazine-2,3,7,8-tetrone], the IC50 [1] was 3000 nM and the “PCA % Inhibition” value [2] was 26%.

For `O=c1[nH]c2cc3oc(=O)c(=O)[nH]c3cc2oc1=O` [Example 2E, Benzo(1,2-b;4,5-b)-bis-[1,4]oxazine-2,3,7,8-tetrone], the IC50 [1] was 1200 nM and the “PCA % Inhibition” value [2] was 42%.
